Measurements reported in ChEMBL document CHEMBL1137628, “Bactericidal activity of extended 9-glycyl-amido-minocyclines” (2007).
In brackets after ≈: the same amount, converted by molar mass.

Test system: Staphylococcus aureus
Assay: Antibacterial activity against Staphylococcus aureus Rosenbach after 14 hrs
Format: functional

Structure (SMILES)	MIC [mg/L]
CN(C)c1ccc(O)c2c1C[C@H]1C[C@H]3[C@H](N(C)C)C(O)=C(C(N)=O)C(=O)[C@@]3(O)C(O)=C1C2=O [MINOCYCLINE]	0.125 (≈ 0.273 µM)
CN(C)c1cc(NC(=O)CN)c(O)c2c1C[C@H]1C[C@H]3[C@H](N(C)C)C(O)=C(C(N)=O)C(=O)[C@@]3(O)C(O)=C1C2=O	2 (≈ 3.78 µM)
CN(C)c1cc(N)c(O)c2c1C[C@H]1C[C@H]3[C@H](N(C)C)C(O)=C(C(N)=O)C(=O)[C@@]3(O)C(O)=C1C2=O	2 (≈ 4.23 µM)
CN(C)c1cc(NC(=O)CNN)c(O)c2c1C[C@H]1C[C@H]3[C@H](N(C)C)C(O)=C(C(N)=O)C(=O)[C@@]3(O)C(O)=C1C2=O	2 (≈ 3.67 µM)
